The numbers were not newly measured in patent EP4803073A2, “METHODS AND COMPOSITIONS FOR TREATMENT OF DISORDERS AMELIORATED BY MUSCARINIC RECEPTOR ACTIVATION” (Puretech Health LLC, priority 2009, dated 2011), which cites them from elsewhere.

For data set [1] the following is noted: double-blind placebo controlled trial.
For data set [2] the following is noted: phase I and subsequent trials.
The conditions of data set [3]: clozapine-associated sialorrhea.
For data set [4] the following is noted: given with the muscarinic agonist xanomeline; syncope is a side effect observed with xanomeline.
The conditions of data set [5]: with the anticholinergic agent glycopyrrolate; escalating amounts of RS-86.

As for `CCCCCCOc1nsnc1C1=CCCN(C)C1` [xanomeline], in data set [1], the alleviation of schizophrenia result was “alleviation of schizophrenia was observed”. Besides, in data set [2], the side effects entry was “unacceptable GI side effects”. Take `Clc1cccc(Cl)c1N=C1NCCN1` [clonidine]: the “efficacy in reducing sialorrhea” value in data set [3] is “shown efficacy in reducing sialorrhea in small scale trials”. Take `C[N+]1(C)[C@@H]2C[C@@H](OC(=O)[C@H](CO)c3ccccc3)C[C@H]1[C@@H]1O[C@@H]12` [methscopolamine]: the effect on syncope entry in data set [4] is “no effect on syncope”.

As for `CCN1C(=O)CC2(CCN(C)CC2)C1=O` [RS-86], the improvement in cognition entry in data set [5] is “did not result in any improvement in cognition”.
